Data on four compounds can be found in paper PMC11207729, “Unveiling Anticancer Potential of COX-2 and 5-LOX Inhibitors: Cytotoxicity, Radiosensitization Potential and Antimigratory Activity against Colorectal and Pancreatic Carcinoma” (Pharmaceutics, 2024).

Data set [1] has as its system BxPC-3 cells. As to the kind of experiment: SRB assay, compound plus γ-radiation, BxPC-3. To be noted: IC50 concentration 24 h before 2 Gy γ-radiation, SRB 72 h after irradiation. In kind it is cell-based, human. How it is done: (§1) In the experiments involving irradiation, cells were irradiated at room temperature, in the vertical position with the cell monolayer facing ^60Co γ-rays (CIRUS-Cis Biointernational). The irradiation of samples was performed in Vinča Institute of Nuclear Sciences, Belgrade, Serbia. In all experiments, a clinically relevant radiation dose of 2 Gy with the dose rate of ~1 Gy/min was applied.
(§2) For the evaluation of cell viability after treatments with radiation as well as after combined treatments, a sulforhodamine B (SRB) protein binding assay was used. This assay is based on the staining of cellular proteins. Maintaining conditions were identical to that of MTT assay. The cells were pretreated with IC50 concentrations of tested compounds for 24 h before irradiations. Following the 72 h post-irradiation incubation time under standard conditions (5% CO2, 37 °C) cells were fixed by protein precipitation with 10% trichloroacetic acid (TCA) at 4 °C for 1 h. Plates were rinsed with distillated water and stained with 0.4% SRB (Sigma-Aldrich Chemie GmbH, Steinheim, Germany) in 1% acetic acid, for 15 min at room temperature. Excess stain was removed by washing the wells in 1% acetic acid. […] The absorbance of each well was measured using a microplate reader (Wallac VICTOR2 1420 Multilabel counter, PerkinElmer, Turku, Finland) at a test wavelength of 550 nm.
Background: Sulforhodamine B stains cellular protein and so reports cell mass.

In data set [2] the test system is BxPC-3 cells. As to the kind of experiment: MTT cytotoxicity assay, BxPC-3. It is filed as cell-based, human. To be noted: for IC50: Homo sapiens, BXPC-3, 72 h, MTT, 72 h after treatment, mean ± SEM; for Selectivity index (IC50 normal cell line/IC50 cancer cell lines), BxPC-3: MRC-5 / BxPC-3, in brackets. The method, then:
(§3) SW620 cells were cultured in Dulbecco’s Modified Eagle’s medium (DMEM, Sigma-Aldrich Chemie GmbH, Steinheim, Germany) and supplemented in the same manner as the previously mentioned cell lines. Cells were grown in cell culture flasks T25 (Sarstedt AG & Co., Nümbrecht, Germany) at appropriate cell densities in the culture medium prior to exposure to treatments. Stock solutions of each compound, prepared in DMSO, were diluted in the culture medium to obtain the appropriate final concentrations.
(§4) The viability of the control and cells treated with the tested compounds was determined by MTT assay. Cells were seeded in 96-well plates at a density of 2000 cells/well, allowed to attach overnight, and then treated with rising concentrations of testing compounds. The ability of viable cells to reduce 3-(4,5-dimethylthiazol-2-yl)-2,5-diphenyltetrazolium bromide into blue-purple formazan crystals, was measured 72 h after the treatments. Namely, l mg/mL of MTT reagent (Sigma-Aldrich Chemie GmbH, Steinheim, Germany) was added to each well and incubated for an additional 4 h. Finally, upon removal of the medium containing MTT, 200 µL of DMSO was added to each well.
In general terms: Formazan colour is commonly taken as a measure of viable cells.

Data set [3] concerns HCT 116 cells. Kind of data set: MTT cytotoxicity assay, HCT 116. In kind it is cell-based, human. To be noted: for IC50: Homo sapiens, HCT-116, MTT, 72 h after treatment, mean ± SEM; for Selectivity index (IC50 normal cell line/IC50 cancer cell lines), HCT 116: MRC-5 / HCT 116, in brackets. The method, then: as §3, §4
The next data set concerns COX-2. Further details: method as in PMID 37111306. The following applies: cited from earlier work.
The subject of data set [4] is HT-29 cells. As to the kind of experiment: SRB assay, compound plus γ-radiation, HT-29. The following applies: IC50 concentration 24 h before 2 Gy γ-radiation, SRB 72 h after irradiation. In kind it is cell-based, human. How it is done:
as §1
For the evaluation of cell viability after treatments with radiation as well as after combined treatments, a sulforhodamine B (SRB) protein binding assay was used. This assay is based on the staining of cellular proteins. Maintaining conditions were identical to that of MTT assay. The cells were pretreated with IC50 concentrations of tested compounds for 24 h before irradiations. Following the 72 h post-irradiation incubation time under standard conditions (5% CO2, 37 °C) cells were fixed by protein precipitation with 10% trichloroacetic acid (TCA) at 4 °C for 1 h. Plates were rinsed with distillated water and stained with 0.4% SRB (Sigma-Aldrich Chemie GmbH, Steinheim, Germany) in 1% acetic acid, for 15 min at room temperature. Excess stain was removed by washing the wells in 1% acetic acid. After being rinsed, microwell plates were air dried until no staining moisture was visible. Bound dye was dissolved in 10 mM unbuffered Tris base (pH 10.5) for 5 min on a gyratory shaker. The absorbance of each well was measured using a microplate reader (Wallac VICTOR2 1420 Multilabel counter, PerkinElmer, Turku, Finland) at a test wavelength of 550 nm.

Data set [5] relates to HT-29 cells. Kind of data set: MTT cytotoxicity assay, HT-29. It is filed as cell-based, human. To be noted: for IC50: Homo sapiens, HT-29, MTT, 72 h after treatment, mean ± SEM; for Selectivity index (IC50 normal cell line/IC50 cancer cell lines), HT-29: MRC-5 / HT-29, in brackets. The method, then:
as §3, §4

Another data set concerns MRC-5 cells. Kind of data set: MTT cytotoxicity assay, MRC-5 normal fibroblasts. In kind it is cell-based, human. The following applies: for IC50: Homo sapiens, MRC5, 72 h, MTT, 72 h after treatment, mean ± SEM, healthy cell line.
Another data set can be described thus: in vivo. To be noted: in vivo. How it is done:
(§5) Wild-type (AB) zebrafish embryos, kindly provided by Dr. Ana Cvejić (Wellcome Trust Sanger Institute, Cambridge, UK), were raised to adult stage in a temperature- and light-controlled zebrafish facility at 28 °C and a standard 14:10 h light–dark photoperiod. Fish were fed with commercial dry food (SDS200 and SDS300 granular food; Special Diet Services, Essex; UK and TetraMinTM flakes; Tetra Melle, Germany) twice a day, and with Artemia nauplii daily.
(§6) Embryos produced by pairwise mating were washed to remove debris, distributed at 10 per well into 24-well plates containing 1 mL of E3 medium (5 mM NaCl, 0.17 mM KCl, 0.33 mM CaCl2 and 0.33 mM MgSO4 in distilled water) and maintained at 28 °C. […] Dead embryos were recorded and discarded every 24 h. […] Experiments were performed in triplicate using 30 embryos for each concentration. At 120 hpf, embryos were anesthetized by the addition of 0.1% (w/v) tricaine solution (Sigma-Aldrich, St. Louis, MO, USA), photographed, and killed by freezing at −20 °C for ≥24 h.

The next data set concerns 5-LOX. Further details: method as in PMID 37111306. The following applies: cited from earlier work.
Data set [6] deals with HCT 116 cells. As to the kind of experiment: SRB assay, compound plus γ-radiation, HCT 116. It is filed as cell-based, human. To be noted: IC50 concentration 24 h before 2 Gy γ-radiation, SRB 72 h after irradiation. How it is done: as §2, with “In the experiments involving irradiation, cells were irradiated at room temperature, in the vertical position with the cell monolayer facing ^60Co γ-rays (CIRUS-Cis Biointernational). The irradiation of samples was performed in Vinča Institute of Nuclear Sciences, Belgrade, Serbia. In all experiments, a clinically relevant radiation dose of 2 Gy with the dose rate of ~1 Gy/min was applied. For” for “For”

The subject of data set [7] is SW620 cells. As to the kind of experiment: Wound-healing assay. In kind it is cell-based, human. To be noted: 25 μM. How it is done:
The migratory potential of SW620 cells (human colon carcinoma cell line) was evaluated by a wound-healing assay. Cells were seeded in density of 300,000 cells per well in 24-well tissue culture microplates and grown for 24 h in DMEM medium supplemented with 10% FBS, penicillin/streptomycin and L-glutamine at 37 °C in a humidified atmosphere containing 5% CO2. Upon reaching confluence, a uniform wound was scratched into a monolayer of each well with a sterile plastic 200 μL micropipette tip. After wounding, the medium was replaced and cells were further treated with 25 μM of compounds 1, 2, 3, and 5 for 24 h and 48 h. Wound closure was monitored by imaging cells at 4× magnification using the ImageXpress® Pico Automated Cell Imaging System (Molecular Devices®, San Jose, CA, USA) immediately (T0), and at 24 h (T24) and 48 h (T48) after wounding. The captured images were analyzed by ImageJ software v. 1.52p (U.S. National Institutes of Health, Bethesda, MD, USA) to measure the degree of closure of the wounded area. Independent experiments were performed three times.

In data set [8] the test system is SW620 cells. As to the kind of experiment: Cytotoxicity in SW620 cells after 24 h treatment (Table S2). In kind it is cell-based. To be noted: Homo sapiens, SW-620, read-out: IC50 (µM) following 24h treatment in SW620 cells.
Data set [9] relates to zebrafish (Danio rerio) embryos. As to the kind of experiment: in vivo. The following applies: embryos exposed for five days, up to 50 µM; cardiotoxicity, hepatotoxicity, malformations. How it is done:
as §5, §6

Where “and” joins values, the source holds several entries; their conditions need not be identical. Identical values can stand only once. Entries after “also recorded” stand apart in the source; their conditions may differ.

As a reminder, the IC50 is the midpoint of a concentration-inhibition curve. By LC50 is commonly meant the concentration lethal to half of the exposed cells or organisms. Read a low LC50 as greater toxicity.

In the case of `C=CCNC(=O)c1cc(C(C)(C)C)c(O)c(C(C)(C)C)c1` [Compound 6], the “cell proliferation, combined treatment versus radiation alone, BxPC-3” value in the data set with BxPC-3 cells [1] was “statistically significant change with respect to radiation”. Moreover, the IC50 in the data set on BxPC-3 cells [2] was 8.63 ± 0.77 µM; with HCT 116 cells [3] it was 23 ± 3.27 µM; in the data set with COX-2, 6.89 µM; with HT-29 cells [5], 24.8 ± 5.4 µM; in the data set on MRC-5 cells, more than 100 µM. Besides, the “Selectivity index (IC50 normal cell line/IC50 cancer cell lines), BxPC-3” value (“Selectivity index … BxPC-3” for short) in the data set with BxPC-3 cells [2] is given as more than 11.59. The “Selectivity index (IC50 normal cell line/IC50 cancer cell lines), HCT 116” value (“Selectivity index … HCT 116” below) in the data set on HCT 116 cells [3] was more than 4.35. The “cell proliferation, combined treatment versus radiation alone, HT-29” value in the data set with HT-29 cells [4] is on record as “statistically significant change with respect to radiation”. Further, in the data set with HT-29 cells [5], the “Selectivity index (IC50 normal cell line/IC50 cancer cell lines), HT-29” value (“Selectivity index … HT-29” below) was more than 4.04.
For the compound `CC(c1cc2ccccc2s1)N(O)C(N)=O` (centres unmarked) [Zileuton, reference compound], in the data set with BxPC-3 cells [2], the IC50 turned out to be 74.9 ± 4.1 µM and the “Selectivity index … BxPC-3” value turned out to be 1.28. In addition, in the data set on HCT 116 cells [3], the IC50 was 44.9 ± 3.48 µM and the “Selectivity index … HCT 116” value turned out to be 2.13. In the data set on HT-29 cells [5], the IC50 turned out to be 78.5 ± 2.28 µM and the “Selectivity index … HT-29” value stood at 1.22. For the same compound, inhibition in the data set on MRC-5 cells was half-maximal at 95.74 ± 0.94 µM (IC50). Also, the “Selectivity index, MRC-5” value with MRC-5 cells (MRC-5 / MRC-5 (reference value), in brackets) was 1. The compound further registered an LC50 in “in vivo” of 4.41 µM.
As for `C#CCNC(=O)c1cc(C(C)(C)C)c(O)c(C(C)(C)C)c1` [Compound 7], the IC50 in the data set on BxPC-3 cells [2] was 29.2 ± 1.56 µM; in the data set with HCT 116 cells [3], 30.2 ± 5.07 µM; in the data set on 5-LOX, 12.6 µM; with HT-29 cells [5], more than 100 µM; with MRC-5 cells, more than 100 µM. Further, the “Selectivity index … BxPC-3” value in the data set on BxPC-3 cells [2] is recorded as more than 3.42. In addition, the “Selectivity index … HCT 116” value in the data set with HCT 116 cells [3] is listed as more than 3.31. In addition, in the data set with HT-29 cells [4], the “cell proliferation, combined treatment versus radiation alone, HT-29” value is reported as “significantly inactivated HT-29 cells”.
On to `O=C(NO)NCc1ccccc1Nc1c(Cl)cccc1Cl` [Compound 3], for which the “cell proliferation, combined treatment versus radiation alone, BxPC-3” value with BxPC-3 cells [1] is listed as “significant change in cell inactivation”. Besides, the “cell proliferation, combined treatment versus radiation alone, HCT 116” value in the data set on HCT 116 cells [6] is “lower in comparison to cells that were only irradiated”. The IC50 with BxPC-3 cells [2] was 34.3 ± 1.79 µM; with HCT 116 cells [3] it was 40.8 ± 1.95 µM; in the data set with HT-29 cells [5] it was 64.6 ± 3.41 µM; in the data set with SW620 cells [8] it was 169 ± 5.7 µM; in the data set on MRC-5 cells, more than 100 µM. The “Selectivity index … BxPC-3” value in the data set on BxPC-3 cells [2] is more than 2.91. Moreover, the “Selectivity index … HCT 116” value with HCT 116 cells [3] is on record as more than 2.45. The “Relative Wound Closure (%) 24 h” value in the data set on SW620 cells [7] (SW620, 24 h relative to T0, mean ± SEM, control 17.87 ± 3.48) is 3.86% and 3.86 ± 0.19%. The “Relative Wound Closure (%) 48 h” value in the data set with SW620 cells [7] (SW620, 48 h relative to T0, mean ± SEM, control 24.51 ± 1.39) was 7.68% and 7.68 ± 2.99%. Besides, the “Selectivity index … HT-29” value with HT-29 cells [5] was more than 1.55. Besides, the LC50 in “in vivo” was more than 50 µM. Further, the “toxic response / adverse side effects in embryos” value in data set [9] is “did not elicit a toxic response; also recorded: no adverse side effects”.
